What was measured:
h-GABA-A α5β3γ2 [1] = target: T1, h-GABA-A α5β3γ2 (Homo sapiens, UniProt P18507+P31644); assay: [3H]flumazenil competition binding assay, membranes of HEK293 cells expressing GABAA receptors; conditions: displacement of [3H]-Flumazenil 0.5 nM, HEK293 cells expressing human receptors, mean of two determinations; Table 1
How it was run: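 Membranes from HEK293 cells transiently expressing human α5β3γ2 GABAA receptors, in Krebs-tris buffer pH 7.5, competed against [3H]flumazenil for 1 hour at 4° C to equilibrium. Bound radioactivity collected on GF/C filters and counted by liquid scintillation; Ki values are means of two determinations.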

h-GABA-A α5β3γ2 [2] = target: T1, h-GABA-A α5β3γ2; assay: Two-electrode voltage clamp electrophysiology in Xenopus laevis oocytes expressing GABAA receptors, modulation of GABA EC20 current; format: cell-based; parameters: host or cells: Xenopus laevis oocytes micro-injected with RNA transcripts of the subunits; conditions: Table 1; for Efficacy (GABA) %: % modulation of GABA EC20 = 100*(Fold increase-1); for Fold increase h-GABA-A α5β3γ2 oocyte: test compound at approx. 30 fold its Ki, GABA at EC20
How it was run: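 Human α5β3γ2 GABAA receptors were expressed in Xenopus oocytes by RNA injection, with γ2 RNA 5–10-fold higher, and recorded 3–5 days later by two-electrode voltage clamp at −80 mV at room temperature. The test compound, at about 30× its Ki, was co-applied during a second GABA EC20 pulse. Efficacy is the extremum of the point-by-point ratio to the first response, expressed as 100*(Fold increase−1).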

| SMILES | Ki (h-GABA-A α5β3γ2 [1]) | Efficacy (GABA) % (h-GABA-A α5β3γ2 [2]) | Fold increase h-GABA-A α5β3γ2 oocyte (h-GABA-A α5β3γ2 [2]) |
| --- | --- | --- | --- |
| Cc1ccc(-c2noc(C)c2Cn2ncc(N3CC[C@@H](OC(C)(C)C)C3)cc2=O)cn1 [Example 90, 5-[(3R)-3-tert-butoxypyrrolidin-1-yl]-2-[[5-methyl-3-(6-methyl-3-pyridyl)isoxazol-4-yl]methyl]pyridazin-3-one] | 24.8 nM | 109% | 2.09 |
| Cc1ccc(-c2nocc2Cn2ncc(N3CCO[C@@H](C)C3)cc2=O)cn1 [Example 91, 5-[(2S)-2-methylmorpholin-4-yl]-2-[[3-(6-methyl-3-pyridyl)isoxazol-4-yl]methyl]pyridazin-3-one] | 21.7 nM | 157% | 2.57 |
| Cc1ccc(-c2nocc2Cn2ncc(N3CCO[C@H](C)C3)cc2=O)cn1 [Example 92, 5-[(2R)-2-methylmorpholin-4-yl]-2-[[3-(6-methyl-3-pyridyl)isoxazol-4-yl]methyl]pyridazin-3-one] | 25.6 nM | 167% | 2.67 |
| Cc1ccc(-c2noc(C)c2Cn2ncc(N3C[C@@H](C)N[C@@H](C)C3)cc2=O)cn1 [Example 93, 5-[(3R,5S)-3,5-dimethylpiperazin-1-yl]-2-[[5-methyl-3-(6-methyl-3-pyridyl)isoxazol-4-yl]methyl]pyridazin-3-one] | 1.6 nM | 125% | 2.25 |
| Cc1ccc(-c2noc(C)c2Cn2ncc(N3CC(Oc4ccccc4)C3)cc2=O)cn1 [Example 94, 2-[[5-methyl-3-(6-methyl-3-pyridyl)isoxazol-4-yl]methyl]-5-(3-phenoxyazetidin-1-yl)pyridazin-3-one] | 7.8 nM | 136% | 2.36 |
| Cc1ccc(-c2noc(C)c2Cn2ncc(N3CC4(CCCO4)C3)cc2=O)cn1 [Example 95, 2-[[5-methyl-3-(6-methyl-3-pyridyl)isoxazol-4-yl]methyl]-5-(5-oxa-2-azaspiro[3.4]octan-2-yl)pyridazin-3-one] | 30.8 nM | 115% | 2.15 |
| Cc1ccc(-c2noc(C)c2Cn2ncc(NC3CN(C4CC4)C3)cc2=O)cn1 [Example 96, 5-((1-cyclopropylazetidin-3-yl)amino)-2-((5-methyl-3-(6-methylpyridin-3-yl)isoxazol-4-yl)methyl)pyridazin-3(2H)-one] | 13 nM | 132% | 2.32 |
| Cc1ccc(-c2noc(C)c2Cn2ncc(N3CCC3)cc2=O)cn1 [Example 97, 5-(azetidin-1-yl)-2-[[5-methyl-3-(6-methyl-3-pyridyl)isoxazol-4-yl]methyl]pyridazin-3-one] | 8.6 nM | 106% | 2.06 |
| Cc1ccc(-c2noc(C)c2Cn2ncc(N3CC(C)(O)C3)cc2=O)cn1 [Example 98, 5-(3-hydroxy-3-methyl-azetidin-1-yl)-2-[[5-methyl-3-(6-methyl-3-pyridyl)isoxazol-4-yl]methyl]pyridazin-3-one] | 7.3 nM | 132% | 2.32 |
| CCOC1CN(c2cnn(Cc3c(-c4ccc(C)nc4)noc3C)c(=O)c2)C1 [Example 99, 5-(3-ethoxyazetidin-1-yl)-2-[[5-methyl-3-(6-methyl-3-pyridyl)isoxazol-4-yl]methyl]pyridazin-3-one] | 14.4 nM | 134% | 2.34 |
| Cc1ccc(-c2noc(C)c2Cn2ncc(N3CC4CC(C3)O4)cc2=O)cn1 [Example 100, 2-[[5-methyl-3-(6-methyl-3-pyridyl)isoxazol-4-yl]methyl]-5-(6-oxa-3-azabicyclo[3.1.1]heptan-3-yl)pyridazin-3-one] | 12.2 nM | 105% | 2.05 |
| COc1ncccc1N1CCN(c2cnn(Cc3c(-c4ccc(C)nc4)noc3C)c(=O)c2)CC1 [Example 101, 5-[4-(2-methoxy-3-pyridyl)piperazin-1-yl]-2-[[5-methyl-3-(6-methyl-3-pyridyl)isoxazol-4-yl]methyl]pyridazin-3-one] | 3.2 nM | 146% | 2.46 |
| Cc1ncc(-c2noc(C)c2Cn2ncc(N(C)C)cc2=O)cc1F [Example 102, 5-(dimethylamino)-2-[[3-(5-fluoro-6-methyl-3-pyridyl)-5-methyl-isoxazol-4-yl]methyl]pyridazin-3-one] | 13.1 nM | 86% | 1.86 |
| Cc1ccc(-c2noc(C)c2Cn2ncc(-c3cnn(C)c3)cc2=O)cn1 [Example 103, 2-((5-methyl-3-(6-methyl-3-pyridyl)isoxazol-4-yl)methyl)-5-(1-methylpyrazol-4-yl)pyridazin-3-one] | 29.7 nM | 141% | 2.41 |
| COC1CN(c2cnn(Cc3c(-c4ccc(C)nc4)noc3C)c(=O)c2)C1 [Example 104, 5-(3-methoxyazetidin-1-yl)-2-[[5-methyl-3-(6-methyl-3-pyridyl)isoxazol-4-yl]methyl]pyridazin-3-one] | 22.9 nM | 134% | 2.34 |
| Cc1ccc(-c2noc(C)c2Cn2ncc(N3CC(O)C3)cc2=O)cn1 [Example 105, 5-(3-hydroxyazetidin-1-yl)-2-[[5-methyl-3-(6-methyl-3-pyridyl)isoxazol-4-yl]methyl]pyridazin-3-one] | 6 nM | 72% | 1.72 |
| Cc1ccc(-c2noc(C)c2Cn2ncc(-c3ccnc(C)c3)cc2=O)cn1 [Example 106, 2-((5-methyl-3-(6-methylpyridin-3-yl)isoxazol-4-yl)methyl)-5-(2-methylpyridin-4-yl)pyridazin-3(2H)-one] | 6.2 nM | 136% | 2.36 |
| COc1cc(-c2cnn(Cc3c(-c4ccc(C)nc4)noc3C)c(=O)c2)ccn1 [Example 107, 5-(2-methoxypyridin-4-yl)-2-((5-methyl-3-(6-methylpyridin-3-yl)isoxazol-4-yl)methyl)pyridazin-3(2H)-one] | 3.8 nM | 70% | 1.7 |
| Cc1ccc(-c2noc(C)c2Cn2ncc(-c3ccnc(C(F)(F)F)c3)cc2=O)cn1 [Example 108, 2-((5-methyl-3-(6-methylpyridin-3-yl)isoxazol-4-yl)methyl)-5-(2-(trifluoromethyl)pyridin-4-yl)pyridazin-3(2H)-one] | 11.4 nM | 104% | 2.04 |
| CCc1nccn1C1CCN(c2cnn(Cc3c(-c4ccc(C)nc4)noc3C)c(=O)c2)CC1 [Example 109, 5-[4-(2-ethylimidazol-1-yl)-1-piperidyl]-2-[[5-methyl-3-(6-methyl-3-pyridyl)isoxazol-4-yl]methyl]pyridazin-3-one] | 2.2 nM | 107% | 2.07 |
| Cc1ccc(-c2noc(C)c2Cn2ncc(N3CCC(n4ccnc4C)CC3)cc2=O)cn1 [Example 110, 5-[4-(2-methylimidazol-1-yl)-1-piperidyl]-2-[[5-methyl-3-(6-methyl-3-pyridyl)isoxazol-4-yl]methyl]pyridazin-3-one] | 1.2 nM | 142% | 2.42 |
| Cc1ccc(-c2noc(C)c2Cn2ncc(N3CC(OCC4CC4)C3)cc2=O)cn1 [Example 111, 5-[3-(cyclopropylmethoxy)azetidin-1-yl]-2-[[5-methyl-3-(6-methyl-3-pyridyl)isoxazol-4-yl]methyl]pyridazin-3-one] | 34.6 nM | 147% | 2.47 |
| Cc1ccc(-c2noc(C)c2Cn2ncc(N3CC(OC(C)C)C3)cc2=O)cn1 [Example 112, 5-(3-isopropoxyazetidin-1-yl)-2-[[5-methyl-3-(6-methyl-3-pyridyl)isoxazol-4-yl]methyl]pyridazin-3-one] | 38 nM | 101% | 2.01 |
| COc1ccc(-c2cnn(Cc3c(-c4ccc(C)nc4)noc3C)c(=O)c2)cc1OC [Example 113, 5-(3,4-dimethoxyphenyl)-2-((5-methyl-3-(6-methyl-3-pyridyl)isoxazol-4-yl)methyl)pyridazin-3-one] | 7.8 nM | 91% | 1.91 |
| Cc1ccc(-c2noc(C)c2Cn2ncc(-c3ccc(OC(F)(F)F)cc3)cc2=O)cn1 [Example 114, 2-((5-methyl-3-(6-methyl-3-pyridyl)isoxazol-4-yl)methyl)-5-(4-(trifluoromethoxy)phenyl)pyridazin-3-one] | 24 nM | 81% | 1.81 |
| Cc1ccc(-c2noc(C)c2Cn2ncc(-c3ccc(OC(C)C)cc3)cc2=O)cn1 [Example 115, 5-(4-isopropoxyphenyl)-2-((5-methyl-3-(6-methyl-3-pyridyl)isoxazol-4-yl)methyl)pyridazin-3-one] | 10.4 nM | 87% | 1.87 |
